Measurements from US20120015344A1, “Methods, compositions, and apparatus for the detection of viral strains” (priority 2010, published 2012).
Several values for one entry are separate records, joined by “and”; a condition that tells them apart may be missing. Equal entries are not always repeated. Entries after “also recorded” stand apart in the source; their conditions may differ. Where two headings read alike, the source gives them in different places. Marks after values point to notes of the source that are not given here.

What was measured:
[1] = system: H5N1; conditions: cited from earlier work
[2] = system: H5 Hemagglutinin (HA) Protein from Influenza Virus, A/Vietnam/1203/04 (H5N1); format: binding, Influenza A virus H5N1 (A/Vietnam/1203/04)
[3] = target: T1, H1 hemagglutinin (HA) protein, A/South Carolina/1/18 (H1N1) (Influenza A virus, UniProt Q9WFX3); format: binding, Influenza A virus H1N1 (A/South Carolina/1/18)
T1 sequence (Q9WFX3 18-566 limits assumed): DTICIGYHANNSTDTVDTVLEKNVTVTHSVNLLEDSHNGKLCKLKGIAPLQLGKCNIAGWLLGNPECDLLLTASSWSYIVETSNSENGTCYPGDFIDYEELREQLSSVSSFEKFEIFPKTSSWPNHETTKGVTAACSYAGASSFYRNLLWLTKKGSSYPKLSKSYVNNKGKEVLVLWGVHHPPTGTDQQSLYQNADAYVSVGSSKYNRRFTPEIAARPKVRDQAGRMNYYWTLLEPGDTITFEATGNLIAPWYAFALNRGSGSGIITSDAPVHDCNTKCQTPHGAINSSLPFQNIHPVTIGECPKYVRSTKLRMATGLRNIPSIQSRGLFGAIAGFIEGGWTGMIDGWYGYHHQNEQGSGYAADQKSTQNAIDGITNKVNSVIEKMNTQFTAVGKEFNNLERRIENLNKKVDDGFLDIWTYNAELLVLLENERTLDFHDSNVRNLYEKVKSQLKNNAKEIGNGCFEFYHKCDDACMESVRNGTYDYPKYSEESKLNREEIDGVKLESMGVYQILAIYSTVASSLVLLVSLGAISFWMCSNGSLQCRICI

[4] = target: T1, H1 hemagglutinin (HA) protein, A/South Carolina/1/18 (H1N1); format: binding, Influenza A virus H1N1 (A/South Carolina/1/18); remark: listed apart in the source
[5] = system: H5 Hemagglutinin (HA) Protein from Influenza Virus, A/Vietnam/1203/04 (H5N1); format: binding, Influenza A virus H5N1 (A/Vietnam/1203/04); remark: listed apart in the source

Question: For “Neu5Acα2-3Galβ1-4GlcNAcβ-SpNH-LC-LC-Biotin [3′SLN]”, which “Predicted to Bind H5N1” value [1] is on record?
Answer: Yes

Question: What about the “binding between H5 and glycan (avidity, from ΔQ)” value [2] of the same substance?
Answer: statistically higher avidity; also recorded: high avidity of binding

Question: For “Neu5Acα2-3Galβ1-4[Fucα1-3]GlcNAcβ-SpNH-LC-LC-Biotin [3′SLe^x]”, which “Predicted to Bind H5N1” value [1] is on record?
Answer: Yes

Question: And the “Mean ΔQ ± S.D. (n = 3)” value [3]?
Answer: 0.08906 ± 0.0045^b mC and 0.1186 ± 0.0180^b mC

Question: And the “Mean ΔQ ± S.D. (n = 3)” value [4]?
Answer: 0.2259 ± 0.0115^f mC and 0.2974 ± 0.0001^f mC

Question: And the “binding between H5 and glycan (avidity, from ΔQ)” value [5]?
Answer: high avidity of binding

Question: Which “Predicted to Bind H5N1” value [1] does the source give for “Neu5Acα2-3[GalNAcβ1-4]Galβ1-4GlcNAcβ-SpNH-LC-LC-Biotin [CT/Sda]” here?
Answer: No

Question: Which “Predicted to Bind H5N1” value [1] does the source give for “Neu5Acα2-3[Galβ1-4GlcNAcβ1-3]2β-SpNH-LC-LC-Biotin [3′S-Di-LN]” here?
Answer: Yes

Question: Which “Predicted to Bind H5N1” value [1] does the source give for “Neu5Acα2-6Galβ1-4GlcNAcβ-SpNH-LC-LC-Biotin [6′SLN]” here?
Answer: No

Question: What about the “Mean ΔQ ± S.D. (n = 3)” value [2] of the same substance?
Answer: 0.1388 ± 0.0056^h mC

Question: And the “binding between H5 and glycan (avidity, from ΔQ)” value [2]?
Answer: statistically lower binding

Question: For “Neu5Acα2-6[Galβ1-4GlcNAcβ1-3]2β-SpNH-LC-LC-Biotin [6′S-Di-LN]”, which “Predicted to Bind H5N1” value [1] is on record?
Answer: No

Question: Which “Predicted to Bind H5N1” value [1] does the source give for “Neu5Acα2-8Neu5Acα2-8Neu5Acα2-3Galβ1-4Glcβ-SpNH-LC-LC-Biotin [GT3]” here?
Answer: No

Question: And the “Mean ΔQ ± S.D. (n = 3)” value [5]?
Answer: 0.2881 ± 0.0172^f mC

Question: And the “binding between H5 and glycan (avidity, from ΔQ)” value [5]?
Answer: statistically lower binding
